pIC50: −log10 of the molar value.

Chain of FAK kinase (catalytic construct FAK(410-689)) (Q05397 410-689): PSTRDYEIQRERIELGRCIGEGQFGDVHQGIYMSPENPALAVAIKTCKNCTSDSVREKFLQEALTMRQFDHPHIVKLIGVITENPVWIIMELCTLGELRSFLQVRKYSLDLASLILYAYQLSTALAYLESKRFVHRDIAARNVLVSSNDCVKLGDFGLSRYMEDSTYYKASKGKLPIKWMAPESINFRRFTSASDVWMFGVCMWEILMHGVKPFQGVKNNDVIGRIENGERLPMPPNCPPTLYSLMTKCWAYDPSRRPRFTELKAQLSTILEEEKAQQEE

For this test, the target named is FAK kinase (catalytic construct FAK(410-689)) (Homo sapiens (Human), UniProt Q05397). The test can be described thus: FAKcd kinase ELISA (inhibition of poly-glu-tyr phosphorylation by FAK(410-689)). It counts as biochemical. Conditions: 50 μM final ATP. How it is done: A. In-Vitro Activity of FAK:
The assay protocol has three parts:
3. […] 4. […] 5. […] 6. […] 7. […] 9. […] 10. […] 12. […] 13. […] 14. Aliquot the FAKcd protein and store frozen at −80° C. II. FAK Activation 1. […] At t120 (t=120 minutes), add 10 μl of 150 mM ATP. […] Add 180 μl aliquots of the desalted material to NiNTA spin column and incubate on spin column 4. […] FAKcd Kinase ELISA 1. Coat 96-well Nunc MaxiSorp plates with poly-glu-tyr (pGT) at […]: Prepare 10 μg/ml of pGT in PBS and aliquot 100 μl/well. Incubate the plates at 37° C. overnight, aspirate the supernatant, wash the plates 3 times with Wash Buffer, and flick to dry before storing at 4° C. 2. Prepare compound stock solutions of 2.5 mM in 100% DMSO. The stocks are subsequently diluted to 60× of the final concentration in 100% DMSO, and diluted 1:5 in Kinase Phosphorylation Buffer. 3. […] Add 80 μl to each well for a final ATP concentration of 50 μM. 4. […] 5. Dilute on ice, FAKcd protein to 1:1000 in Kinase Phosphorylation Buffer. Dispense 30 μl per well. 6. Note: Linearity and the appropriate dilution must be pre-determined for each batch of protein. The enzyme concentration selected should be such that quantitation of the assay signal will be approximately 0.8-1.0 at OD450, and in the linear range of the reaction rate. 7. Prepare both a No ATP control (noise) and a No Compound Control (Signal): 8. (Noise) One blank row of wells receives 10 μl of 1:5 diluted compounds in DMSO, 80 μl of Phosphorylation buffer (minus ATP), and 30 μl FAKcd solution. 9. […] 10. Incubate reaction at room temperature for 15 minutes with gentle shaking on a plate shaker. 11. Terminate the reaction by aspirating off the reaction mixture and washing 3 times with wash buffer. 12. Dilute phospho-tyrosine HRP-conjugated (pY20HRP) antibody to 0.250 μg/ml (1:1000 of Stock) in blocking buffer. Dispense 100 μl per well, and incubate with shaking for 30 minutes at 25°. 13. Aspirate the supernatant and wash the plate 3 times with wash buffer. 14. Add 100 μl per well of room temperature TMB solution to initiate color development. Color development is terminated after approximately 15-30 sec. by the addition of 100 μl of 0.09M H2SO4 per well. 15. The signal is quantitated by measurement of absorbance at 450 nm on the BioRad ricroplate reader or a microplate reader capable of reading at OD450. 16. Inhibition of tyrosine kinase activity would result in a reduced absorbance signal. […] The values are reported as IC50s, μM concentration. FAK Inducible cell-based ELISA: Final Protocol Materials: […]
Background: An ELISA detects its analyte on a solid surface through an enzyme-linked reagent.
Consider `Cc1cnc(N(C)S(C)(=O)=O)c(CNc2nc(Nc3ccc(C(N)=O)cc3)ncc2C(F)(F)F)c1` [Compound 82, 4-({4-(({5-methyl-2-[methyl(methylsulfonyl)amino]pyridin-3-yl}methyl)amino]-5-(trifluoromethyl)pyrimidin-2-yl}amino)benzamide], for which the pIC50 (usually the IC50 on a negative log10 scale, so that one unit is a factor of ten) is 9.22.
As to `CCn1nccc1Nc1ncc(C(F)(F)F)c(NCc2cccnc2N(C)S(C)(=O)=O)n1` [Compound 91, N-{3-[({2-[(1-ethyl-1H-pyrazol-5-yl)amino]-5-(trifluoromethyl)pyrimidin-4-yl}amino)methyl]pyridin-2-yl}-N-methylmethane-sulfonamide], the pIC50 was 6.73.
In turn, `CN(c1ncccc1CNc1nc(Nc2ccc(C(=O)NCCCO)cc2)ncc1C(F)(F)F)S(C)(=O)=O` [Compound 255, N-(3-hydroxypropyl)-4-({4-[({2-[methyl(methylsulfonyl)amino]pyridin-3-yl}methyl)amino]-5-(trifluoromethyl)pyrimidin-2-yl}amino)benzamide] showed a pIC50 of 9.09.
For the compound `COc1cccc(Nc2ncc(C(F)(F)F)c(NCc3cccnc3N(C)S(C)(=O)=O)n2)c1` [Compound 281, N-{3-[({2-[(3-methoxyphenyl)amino]-5-(trifluoromethyl)pyrimidin-4-yl}amino)methyl]pyridin-2-yl}-N-methylmethane-sulfonamide], the pIC50 was 9.22.
Regarding `CCNC(=O)c1ccc(Nc2ncc(C(F)(F)F)c(NCc3ccc(C)nc3N(C)S(C)(=O)=O)n2)cc1` [Compound 89, N-ethyl-4-({4-[({6-methyl-2-[methyl(rnethylsu!fonyl)amino]pyridin-3-yl}methyl)amino]-5-(trifluoromethyl)pyrimidin-2-yl}amino)benzamide], the pIC50 is 9.22.
Consider `CN(c1ncccc1CNc1nc(Nc2ccc(C(=O)NC3CCCOC3)cc2)ncc1C(F)(F)F)S(C)(=O)=O` (centres unmarked) [Compound 263, 4-({4-(({2-[methyl(methylsulfonyl)amino]pyridin-3-yl}methyl)amino]-5-(trifluoromethyl)pyrimidin-2-yl}amino)-N-(tetrahydro-2H-pyran-3-yl)benzamide], for which the pIC50 is 9.09.
In the case of `COCCCN(C)C(=O)c1ccc(Nc2ncc(C(F)(F)F)c(NCc3cccnc3N(C)S(C)(=O)=O)n2)cc1` [Compound 277, N-(3-methoxypropyl)-N-methyl-4-({4-[({2-[methyl(methylsulfonyl)amino]pyridin-3-yl}methyl)arnino]-5-(trifluoromethyl)pyrimidin-2-yl}amino)benzamide], the pIC50 was 8.63.
The result for `CN(c1ncccc1CNc1nc(Nc2ccc(C(=O)NC3CCC3)cc2)ncc1C(F)(F)F)S(C)(=O)=O` [Compound 240, N-cyclobutyl-4-({4-[({2-[methyl(methylsulfonyl)amino]pyridin-3-yl}methyl)amino]-5-(trifluoromethyl)pyrimidin-2-yl}amino)benzamide] reads 9.16; that for `CN(c1ncccc1CNc1nc(Nc2ccc(C(=O)N3CCC3)cc2)ncc1C(F)(F)F)S(C)(=O)=O` [Compound 253, N-[3-({[2-{[4-(azetidin-1 - ylcarbonyl)phenyl]amino}-5-(trifluoromethyl)pyrimidin-4-yl]amino}methyl)pyridin-2-yl]-N-methylmethane-sulfonarriide], 9.22.
The result for `COCCCNC(=O)c1cccc(Nc2ncc(C(F)(F)F)c(NCc3cccnc3N(C)S(C)(=O)=O)n2)c1` [Compound 149, N-(3-methoxypropyl)-3-({4-[({2-[methyl(methylsulfonyl)amino]pyridin-3-yl}methyl)amino]-5-(trifluoromethyl)pyrimidin-2-yl}amino)benzamide] reads 8.82; that for `CC(=O)NCC(=O)NCc1ccc(Nc2ncc(C(F)(F)F)c(NCc3cccnc3N(C)S(C)(=O)=O)n2)cc1` [Compound 215, N~2~-acetyl-N-[4-({4-[({2-[methyl(methylsulfonyl)amino]pyridin-3-yl}methyl)amino]-5-(trifluoromethyl)pyrimidin-2-yl}amino)benzyl]glycinamide], 9.22.
The result for `Cc1cc(C(N)=O)ccc1Nc1ncc(C(F)(F)F)c(NCc2ncccc2N(C)S(C)(=O)=O)n1` [Compound 343, 3-methyl-4-({4-[({3-[methyl(methylsulfonyl)amino]pyridin-2-yl}methyl)amino]-5-(trifluoromethyl)pyrimidin-2-yl}amino)benzamide] reads 9.00; that for `CN(c1cccc(CNc2nc(Nc3ccc(F)c(C(N)=O)c3)ncc2C(F)(F)F)c1)S(C)(=O)=O` [Compound 379, 2-fluoro-5-{[4-({3-[methyl(methylsulfonyl)amino]benzyl}amino)-5-(trifluoromethyl)pyrimidin-2-yl]amino}benzamide], 8.32; that for `Cc1ccc(C#N)cc1Nc1ncc(C(F)(F)F)c(NCc2cccnc2N(C)S(C)(=O)=O)n1` [Compound 220, N-{3-[({2-[(5-cyano-2-methylphenyl)amino]-5-(trifluoromethyl)pyrimidin-4-yl}amino)methyl]pyridin-2-yl}-N-methylmethane-sulfonamide], 9.22.
For the compound `COCCNCc1ccc(Nc2ncc(C(F)(F)F)c(NCc3cccnc3N(C)S(C)(=O)=O)n2)cc1` [Compound 388, N-{3-[({2-((4-{[(2-methoxyethyl)amino]methyl}phenyl)amino]-5-(trifluoromethyl)pyrimidin-4-yl}amino)methyl]pyridin-2-yl}-N-methylmethane-sulfonamide], the pIC50 is greater than 9.23.
The result for `CN(c1ncccc1CNc1nc(Nc2ccc(C(O)CO)cc2)ncc1C(F)(F)F)S(C)(=O)=O` (centres unmarked) [Compound 412, N-[3-({[2-{[4-(1,2-dihydroxyethyl)phenyl]amino}-5-(trifluoromethyl)pyrimidin-4-yl]amino}methyl)pyridin-2-yl]-N-methylmethane-sulfonamide] reads greater than 9.23; that for `CNC(=O)c1ccc(Nc2ncc(C(F)(F)F)c(NCc3nccnc3N(C)S(C)(=O)=O)n2)cc1C` [Compound 400, N,2-dimethyl-4-({4-[({3-[methyl(methylsulfonyl)amino]pyrazin-2-yl)methyl)amino]-5-(trifluoromethyl)pyrimidin-2-yl}amino)benzamide], 9.18.
The result for `CS(=O)(=O)Nc1ccccc1CNc1nc(Nc2ccc(C(N)=O)cc2)ncc1C(F)(F)F` [Compound 111, 4-{[4-({2-[(methylsulfonyl)amino]benzyl}amino)-5-(trifluoromethyl)pyrimidin-2-yl]amino}benzamide] reads 9.22.
The result for `Cc1ccc(CNc2nc(Nc3ccccc3)ncc2C(F)(F)F)c(N(C)S(C)(=O)=O)c1` [Compound 65, N-[2-({[2-anilino-5-(trifluoromethyl)pyrimidin-4-yl]amino}methyl)-5-methylphenyl]-N-methylmethanesulfonamide] reads 9.22; that for `CN(C)CCCNC(=O)c1cccc(Nc2ncc(C(F)(F)F)c(NCc3cccnc3N(C)S(C)(=O)=O)n2)c1` [Compound 145, N-[3-(dimethylamino)propyl]-3-({4-(({2-[methyl(methylsulfonyl)amino]pyridin-3-yl}methyl)amino]-5-(trifluoromethyl)pyrimidin-2-yl}amino)benzamide], 8.60.
With `C[C@H]1COCCN1C(=O)c1ccc(Nc2ncc(C(F)(F)F)c(NCc3cccnc3N(C)S(C)(=O)=O)n2)cc1` [Compound 261, N-methyl-N-{3-[({2-[(4-{[(3S)-3-rnethylmorpholin-4-yl]carbonyl}phenyl)amino]-5-(trifluoromethyl)pyrimidin-4-yl}amino)methyl]pyridin-2-yl}methanesulfonamide], the negative-log IC50 (pIC50) was 8.95.
For the compound `CC(NC(=O)c1cccc(Nc2ncc(C(F)(F)F)c(NCc3cccnc3N(C)S(C)(=O)=O)n2)c1)C1CC1` (centres unmarked) [Compound 151, N-(1-cyclopropylethyl)-3-({4-[({2-[methyl(methylsulfonyl)-amino]pyridin-3-yl}methyl)amino]-5-(trifluoromethyl)pyrimidin-2-yl}amino)benzamide], the pIC50 was 8.28.
The result for `CC1CCN(C(=O)c2cccc(Nc3ncc(C(F)(F)F)c(NCc4cccnc4N(C)S(C)(=O)=O)n3)c2)CC1` [Compound 197, N-methyl-N-[3-({[2-({3-[(4-methylpiperidin-1-yl)carbonyl]phenyl}amino)-5-(trifluoromethyl)pyrimidin-4-yl]amino}methyl)pyridin-2-yl]methanesulfonamide] reads 8.35.
